Measured values taken from patent US20240369551A1 (priority 2021, published 2024).
Values joined by “and” are separate entries in the source; they are usually repeats but may differ in a detail not shown here. Equal values may be shown once. Read-outs that look alike come from different tables or passages of the source. Ends that are not written are not given here.

Legend:
[1] = test system: SARS-CoV-2 IgG antibodies; assay: Immunoassay with epitope-tagged AuNPs (aggregation, relative change in absorbance at 534 nm); assay type: binding, rabbit; details: for decrease of normalized plasmon peak intensity (534 nm): anti-SARS-CoV-2 S1 IgG; for LOD: detection of anti-SARS-CoV-2 S1 IgG; for limit of detection (LOD): single epitope-functionalized AuNPs (streptavidin-biotin), respective SARS-CoV-2 IgG; for nanosensor response: 100 nM anti-S1 IgG
Description: (§1) SARS-CoV-2 IgG antibodies and control antibodies were first diluted in 1×PBS. In a typical experiment, 5 μL of prediluted antibody solution was added to 45 μL of epitope-functionalized AuNPs. The mixture was spun briefly for 20 s at 6000 rpm using a portable microcentrifuge (Profuge 6K) and incubated for another 30 min at room temperature. Absorbance spectra of the supernatant were recorded using a microplate reader (Synergy 2; BioTek). Sensor response was calculated as the relative change in absorbance at 534 nm. For a time-profile study, the absorbance spectra were recorded at 10 min intervals. For a salt-induced aggregation test, solutions of AuNPs were treated with 1×PBS and the absorbance spectra were recorded after a 30 min incubation. For a selectivity screen against other human coronaviruses, the concentration of antibodies was 100 nM. To investigate the sensitivity of AuNPs in human plasma, SARS-CoV-2 IgG rabbit antibodies were spiked into PBS containing various concentrations of human plasma, such that the final plasma concentration after mixing with AuNPs was 0%, 10%, and 20% (v/v).

[2] = test system: SARS-CoV IgG; assay type: binding
[3] = test system: MERS IgGs; assay type: binding
[4] = test system: HCoV-HKU1 IgGs; assay: Immunoassay with epitope-tagged AuNPs, selectivity screen; assay type: binding; details: 100 nM antibodies
Description: as §1

[5] = test system: normal human IgG; assay: Immunoassay with epitope-tagged AuNPs, control IgG; assay type: binding
Description: as §1

[6] = test system: COVID19 anti-S1 IgG; assay: UV-vis aggregation test of peptide-coated nanoparticles (Examples 1, 6, 7, 8); assay type: binding; details: for response to COVID-19 IgGs: single epitope thiol-AuNP conjugation with thiolyated spacer CALNN
[7] = biological target: epitope-specific SARS-CoV-2 IgGs; assay: SPR spectroscopy (Biacore T200): IgG binding to immobilized biotinylated peptide epitopes; design: species or system rabbit; details: for binding affinities (estimated Kd, order of magnitude): Example 9, kinetic fitting, streptavidin treated CM5 chip; for Kd: respective target IgG, 25° C.; for apparent Kd: kinetic analysis, very slow dissociation, beyond the instrument sensitivity limit
[8] = test system: SARS-CoV-2 IgG; assay: Fluorescence polarization (FP) of FITC-labeled epitopes with IgG; assay type: binding, rabbit; details: 100 nM FITC-labeled epitope, 200 nM IgG, 15 min, 1×PBS
[9] = test system: COVID19 anti-S2 IgG; assay: UV-vis aggregation test of peptide-AuNP conjugates (Example 2); assay type: binding; details: streptavidin-biotin conjugates, peptide 10 or 1 μM
Description: Citrate-coated AuNP was functionalized with streptavidin (SA) by mixing 500 nM of SA with 8 nM of citrate-coated AuNP. The mixture was incubated at room temperature for 30 min, and unbound SA was removed from the SA-coated AuNPs (SA-AuNPs) with centrifugation at 12,500 RCF for 15 mins. Then, biotinylated S20P2 or S21P2 peptide (10 or 1 μM) was added to conjugate to the SA-AuNPs. Unreacted peptides were removed from the peptide-AuNP conjugates with centrifugation at 12500 RCF for 12 mins. The conjugates were reconstituted into ultrapure water for further tests with IgG.
For IgG test, 20 μL of COVID19 anti-S2 IgG (SINO Biological) was added to 80 μL of peptide-AuNP conjugates in a 96-well plate. UV-vis spectrum before and after IgG addition are recorded (FIGS. 3A and B). […] For both conjugates, a higher degree of aggregation is observed when lower peptide concentration (1 μM) is used, presumably due to the diluted coating density around AuNP which poses less steric hindrance for binding with IgG.

[10] = real-time kinetic analysis, 1:1 Langmuir model, read-out: Kd from kinetic analysis
[11] = steady-state analysis without dissociation step, read-out: Kd from steady-state analysis

## S14P5-AuNPs: Gold nanoparticles functionalized with S14P5; streptavidin-biotin in Example 10, thiol-gold with or without CALNN spacer in Examples 1 and 6 (TESNKKFLPFQQFGRDIA; also: conjugated to gold nanoparticles via streptavidin-biotin or thiol-gold, with or without CALNN spacer)
[1]; first 10 min
  decrease of normalized plasmon peak intensity (534 nm): 40.2%
[1]; leveling off within 30 min
  decrease of normalized plasmon peak intensity (534 nm): 67.3%
[1]
  LOD: 4.1 nM
  limit of detection (LOD): 4.1 nM
[2]
  dose-dependent aggregation response (decrease in plasmon peak intensity): absent
  normalized sensor response: 11.4%
[2]; after 60 min
  normalized sensor response with SARS-CoV IgG relative to SARS-CoV-2 IgG (fold lower): 6 fold
[3]
  sensor response: minimal sensor response
[4]
  sensor response: minimal sensor response
[5]
  dose-dependent aggregation response (decrease in plasmon peak intensity): absent
[6]; Example 1: thiol-conjugated S14P5 with CALNN blocking
  IgG concentration giving visible change in colour from red to purple: ≥ 100 nM
[6]; Example 1: thiol-conjugated S14P5 with CALNN blocking, absorbance ratio
  linear range: 10 to 100 nM
[6]; Example 1: thiol-conjugated S14P5 with CALNN blocking, absorbance ratio, 15 min
  LOD: ~30 nM and 4.5 μg/ml
[6]; thiol-AuNP conjugation without spacer, COVID-19 anti-S1 IgG (100 nM)
  binding / nanoparticle aggregation: unable to bind to anti COVID-19 IgGs

## GIAVEQDKNTQEVFAQVK [S20P2]
[7]
  binding affinities (estimated Kd, order of magnitude): nM
[7]; [10]
  Kd: ~80 nM and 80 nM
[7]; [11]
  Kd: 510 ± 34 nM
[8]
  relative FP increase: significant increase in FP values
[1]
  limit of detection (LOD): 15.4 nM

## S21P2-AuNPs: Streptavidin-coated gold nanoparticles functionalized with biotinylated S21P2 epitope (PSKPSKRSFIEDLLFNKV; also: biotinylated, bound to streptavidin-coated gold nanoparticles)
[1]
  limit of detection (LOD): 5.1 nM
[3]
  sensor response: minimal sensor response
[4]
  sensor response: minimal sensor response
[9]
  aggregation of peptide-coated AuNPs: significant aggregation

## NNAAIVLQLPQGTTLPKG [N4P5]
[7]
  binding affinities (estimated Kd, order of magnitude): μM
[7]; [10]
  Kd: ~218 nM and 218 nM
[7]; [11]
  Kd: 1610 ± 120 nM
[8]
  relative FP increase: comparably lower percentage of FP increase
[1]
  limit of detection (LOD): 25.8 nM

## TESNKKFLPFQQFGRDIA [S14P5]
[7]
  binding affinities (estimated Kd, order of magnitude): pM
  apparent Kd: low pM range
[7]; [10]
  Kd: < 1 nM
[7]; [11]
  Kd: 111 ± 15 nM
[8]
  relative FP increase: highest relative FP increase
[1]
  limit of detection (LOD): 4.1 nM
[6]
  response to COVID-19 IgGs: resulted in nanoparticle aggregation

## S14P5/S21P2-AuNPs: Streptavidin-coated gold nanoparticles functionalized with both biotinylated S14P5 and S21P2 epitopes (peptide 1 TESNKKFLPFQQFGRDIA; peptide 2 PSKPSKRSFIEDLLFNKV; also: biotinylated peptides on streptavidin-coated gold nanoparticle)
[1]; 50 nM of anti-S1 IgG or anti-S2 IgG (FIG. 23)
  recognition of anti-S1 and anti-S2 IgGs of SARS-CoV-2: able to recognize both anti-S1 and anti-S2 IgGs
[1]; 5-fold diluted human plasma
  nanosensor response: 14.6%
[1]; 10-fold diluted human plasma
  nanosensor response: 22.8%
[1]; pure PBS
  nanosensor response: 78.2%
[1]
  LOD: 3.2 nM

## PSKPSKRSFIEDLLFNKV [S21P2]
[7]
  binding affinities (estimated Kd, order of magnitude): pM
  apparent Kd: low pM range
[7]; [10]
  Kd: < 1 nM
[7]; [11]
  Kd: 125 ± 7 nM
[8]
  relative FP increase: significant increase in FP values
[1]
  limit of detection (LOD): 5.1 nM
[6]
  response to COVID-19 IgGs: resulted in nanoparticle aggregation
